Reference: US20040121947A1, “Compounds which inhibit beta-secretase activity and methods of use thereof” (Oklahoma Medical Research Foundation, priority 2000, published 2004)
Like-named read-outs stand apart in the source and are kept apart here.

Biological target: T1, memapsin 2 (Homo sapiens, UniProt P56817)
T1 construct: pET-11 vector-derived residues 1-15 of promemapsin 2-T1 (N, cleaved yes); made in house; host or cells: E. coli
Assay: Inhibition of memapsin 2 proteolytic activity, fluorogenic substrate FS-2
Format: biochemical
Settings: for Vi/Vo: ratio of initial cleavage velocities of FS-2 with/without compound, enzyme and inhibitor concentrations equal (e.g., about 80 nM, 100 nM)
Summary of the method: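 Inhibitors tested at about 10 nM to 10 μM in pH 4.0 0.1 M sodium acetate containing 10% (v/v) DMSO, after 20 min preincubation at 37 °C with 80 nM self-activated memapsin 2. Substrate-independent Ki derived from apparent Ki via Km and substrate level.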

[1] = memapsin 2, apparent Ki in presence of substrate FS-2, read-out: Ki app
[2] = memapsin 2, independent of substrate, converted from Ki apparent, read-out: Ki
[3] = Ki, [I] < 100, memapsin 2, [I] < 100 (nM)
[4] = memapsin 2, apparent Ki in presence of substrate FS-2
[5] = memapsin 2, independent of substrate, converted from Ki apparent

T1 sequence (P56817 41-454 limits assumed): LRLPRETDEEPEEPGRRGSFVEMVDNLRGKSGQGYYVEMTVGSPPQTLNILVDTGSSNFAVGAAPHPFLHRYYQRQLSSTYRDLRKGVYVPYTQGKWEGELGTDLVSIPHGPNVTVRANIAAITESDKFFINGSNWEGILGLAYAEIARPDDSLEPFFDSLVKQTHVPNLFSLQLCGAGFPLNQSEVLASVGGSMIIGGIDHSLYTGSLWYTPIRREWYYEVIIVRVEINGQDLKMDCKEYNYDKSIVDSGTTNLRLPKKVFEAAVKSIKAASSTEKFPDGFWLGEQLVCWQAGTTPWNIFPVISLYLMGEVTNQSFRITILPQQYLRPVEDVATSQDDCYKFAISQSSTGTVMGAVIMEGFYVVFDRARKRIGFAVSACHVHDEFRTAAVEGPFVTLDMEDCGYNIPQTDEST

SMILES	Ki [1] [nM]	Ki [2] [nM]	Vi/Vo	Ki [3] [nM]	Ki app [4]	Ki [5]
CCCCNC(=O)[C@@H](NC(=O)[C@H](C)C[C@H](O)[C@H](CC1CCC1)NC(=O)[C@H](CCSC)NC(=O)OCn1nc(C)cc1C)C(C)C [MMI-178]	24.5	15.3	0.69			
CSCC[C@H](NC(=O)OCc1ccnn1C)C(=O)N[C@@H](CC(C)C)[C@@H](O)C[C@@H](C)C(=O)N[C@H](C(=O)NCC(C)C)C(C)C [MMI-186]	217	136				
CSCC[C@H](NC(=O)[C@@H](NC(=O)OC(C)(C)C)C(C)C)C(=O)N[C@@H](CC(C)C)[C@@H](O)C[C@]1(C)CCN([C@H](C(=O)NCC(C)C)C(C)C)C1=O [MMI-187]					N.I.	N.I.
CSCC[C@H](NC(=O)OCc1ncc(C)n1C)C(=O)N[C@@H](CC(C)C)[C@@H](O)C[C@@H](C)C(=O)N[C@H](C(=O)NCC(C)C)C(C)C [MMI-188]	230	144				
CSCC[C@H](NC(=O)OCc1c(C)ncn1C)C(=O)N[C@@H](CC(C)C)[C@@H](O)C[C@@H](C)C(=O)N[C@H](C(=O)NCC(C)C)C(C)C [MMI-189]	358	224				
COCOCC[C@H](NC(=O)[C@H](CC(C)C)NC(=O)OC(C)(C)C)C(=O)N[C@@H](CC(C)C)[C@@H](O)C[C@@H](C)C(=O)N[C@@H](CC(C)C)C(=O)NC(C)C [MMI-190]	29.1	18.2				
CSCC[C@H](NC(=O)[C@@H](NC(=O)OC(C)(C)C)C(C)C)C(=O)N[C@@H](CC(C)C)[C@@H](O)C[C@]1(C)CCN([C@@H](CC(C)C)C(=O)NCC(C)C)C1=O [MMI-191]					N.I.	N.I.
CSCC[C@H](NC(=O)[C@@H](NC(=O)OC(C)(C)C)C(C)C)C(=O)N[C@@H](CC(C)C)[C@@H](O)C[C@]1(C)CCN([C@H](C(=O)N2CCN(C)CC2)C(C)C)C1=O [MMI-192]	374	234				
CSCC[C@H](NC(=O)OCc1cc(C)nn1C)C(=O)N[C@@H](CC(C)C)[C@@H](O)C[C@@H](C)C(=O)N[C@H](C(=O)NCC(C)C)C(C)C [MMI-193]	288	180				
CSCC[C@H](NC(=O)[C@H](C(C)C)N1CCCNC1=O)C(=O)N[C@@H](CC(C)C)[C@@H](O)C[C@@H](C)C(=O)N[C@@H](CC(C)C)C(=O)NCC(C)C [MMI-198]	756	473				
COc1cccc(C(=O)N[C@@H](CSC)C(=O)N[C@@H](CC(C)C)[C@@H](O)C[C@@H](C)C(=O)N[C@@H](CC(C)C)C(=O)NC(C)C)c1OC [MMI-199]	963	602		190		
CSCC[C@H](NC(=O)[C@@H](NC(=O)OC(C)(C)C)C(C)C)C(=O)N[C@@H](CC(C)C)[C@@H](O)C[C@H](C(=O)N[C@H](C(=O)NCc1ccccc1)C(C)C)C(C)C [MMI-202]	688	430				
CC(C)C[C@H](NC(=O)OC(C)(C)C)C(=O)N[C@@H](CC1CCCO1)C(=O)N[C@@H](CC(C)C)[C@@H](O)C[C@@H](C)C(=O)N[C@@H](CC(C)C)C(=O)NC(C)C (stereo partly shown) [MMI-205]	48.8	30.5				
COc1cccc(C(=O)N[C@@H](CCSC)C(=O)N[C@@H](CC(C)C)[C@@H](O)C[C@@H](C)C(=O)N[C@@H](CC(C)C)C(=O)NC(C)C)c1OC [MMI-206]	1210	758		292		
CSCC[C@H](NC(=O)c1cccc(C)c1C)C(=O)N[C@@H](CC(C)C)[C@@H](O)C[C@@H](C)C(=O)N[C@@H](CC(C)C)C(=O)NC(C)C [MMI-210]	899	562				
CSCC[C@H](NC(=O)C(C)Cn1nc(C)cc1C)C(=O)N[C@@H](CC(C)C)[C@@H](O)C[C@@H](C)C(=O)N[C@H](C(=O)NCc1ccco1)C(C)C (stereo partly shown) [MMI-214]	19	11.9				
CC(C)C[C@H](NC(=O)OC(C)(C)C)C(=O)N[C@@H](CC1CCCO1)C(=O)N[C@@H](CC(C)C)[C@@H](O)C[C@@H](C)C(=O)N[C@@H](CC(C)C)C(=O)NC(C)C (stereo partly shown) [MMI-215]	30.9	19.3				
CSCC[C@H](NC(=O)OCn1nc(C)cc1C)C(=O)N[C@@H](CC(C)C)[C@@H](O)C[C@@H](C)C(=O)N[C@H](C(=O)N1CCN(C)CC1)C(C)C [MMI-217]	1070	670				
CSCC[C@H](NC(=O)OC(C)(C)Cn1nc(C)cc1C)C(=O)N[C@@H](CC(C)C)[C@@H](O)C[C@@H](C)C(=O)N[C@@H](CC(C)C)C(=O)NC(C)C [MMI-219]	1420	889				
CSCC[C@H](NC(=O)OCCn1nc(C)c2c1CCC2)C(=O)N[C@@H](CC(C)C)[C@@H](O)C[C@@H](C)C(=O)N[C@@H](CC(C)C)C(=O)NC(C)C [MMI-220]	4490	2810				
CSCC[C@H](NC(=O)OCCn1nc(C)c2c1CSC2)C(=O)N[C@@H](CC(C)C)[C@@H](O)C[C@@H](C)C(=O)N[C@@H](CC(C)C)C(=O)NC(C)C [MMI-221]	1910	1190				
CSCC[C@H](NC(=O)OCn1nc(C)cc1C)C(=O)N[C@@H](CC(C)C)[C@@H](O)C[C@@H](C)C(=O)N[C@@H](CC(C)C)C(=O)NC(C)C [MMI-224]	70	43.8				
CSCC[C@H](NC(=O)C(Cn1nc(C)cc1C)C(C)C)C(=O)N[C@@H](CC(C)C)[C@@H](O)C[C@@H](C)C(=O)N[C@H](C(=O)NCc1ccco1)C(C)C (stereo partly shown) [MMI-225]	41	25.7				

Continued by falling Ki [1], values first:

Ki [1] [nM]	Ki [2] [nM]	Vi/Vo	Ki [3] [nM]	Ki app [4]	Ki [5]	SMILES
8420	5280					Cc1cc(C)n(CCOC(=O)N[C@@H](CCN2CCOCC2)C(=O)N[C@@H](CC(C)C)[C@@H](O)C[C@@H](C)C(=O)N[C@@H](CC(C)C)C(=O)NC(C)C)n1 [MMI-223]
6740	4210	0.64	108			CSCC[C@H](NC(=O)[C@@H](NC(=O)OC(C)(C)C)C(C)C)C(=O)N[C@@H](CC(C)C)[C@@H](O)C[C@@H](C)C(=O)N[C@@H](CC(C)C)C(=O)N1CCOCC1 [MMI-183]
2450	1530					CSCC[C@H](NC(=O)OCCn1nc(C)c2c1CS(=O)(=O)C2)C(=O)N[C@@H](CC(C)C)[C@@H](O)C[C@@H](C)C(=O)N[C@@H](CC(C)C)C(=O)NC(C)C [MMI-222]
1950	1220		407			COc1ccc(C(=O)N[C@@H](CCSC)C(=O)N[C@@H](CC(C)C)[C@@H](O)C[C@@H](C)C(=O)N[C@@H](CC(C)C)C(=O)NC(C)C)cc1 [MMI-208]
1800	1120		226			CCCCNC(=O)[C@@H](NC(=O)C(C)(C)C[C@H](O)[C@H](CC(C)C)NC(=O)[C@H](CCSC)NC(=O)OCn1nc(C)cc1C)C(C)C [MMI-218]
1580	988		1830			COc1ccccc1C(=O)N[C@@H](CCSC)C(=O)N[C@@H](CC(C)C)[C@@H](O)C[C@@H](C)C(=O)N[C@@H](CC(C)C)C(=O)NC(C)C [MMI-207]
1530	956					CSCC[C@H](NC(=O)c1cccc(O)c1O)C(=O)N[C@@H](CC(C)C)[C@@H](O)C[C@@H](C)C(=O)N[C@@H](CC(C)C)C(=O)NC(C)C [MMI-200]
1300	812					COc1cccc(C(=O)N[C@@H](CCSC)C(=O)N[C@@H](CC(C)C)[C@@H](O)C[C@@H](C)C(=O)N[C@@H](CC(C)C)C(=O)NC(C)C)c1 [MMI-209]
1200	753					CSCC[C@H](NC(=O)OCn1nc(C)cc1C)C(=O)N[C@@H](CC(C)C)[C@@H](O)C[C@@H](C)C(=O)N[C@@H](CC(C)C)C(=O)N1CCN(C)CC1 [MMI-216]
761	476					CSCC[C@H](NC(=O)[C@@H](NC(=O)OC(C)(C)C)C(C)C)C(=O)N[C@@H](CC(C)C)[C@@H](O)C[C@H](C(=O)N[C@@H](C)C(=O)NCc1ccccc1)C(C)C [MMI-211]
451	282					CSCC[C@H](NC(=O)C(C)Cn1nc(C)cc1C)C(=O)N[C@@H](CC(C)C)[C@@H](O)C[C@@H](C)C(=O)N[C@H](C(=O)NCC(C)C)C(C)C (stereo partly shown) [MMI-195]
361	225					CSCC[C@H](NC(=O)OCCn1nc(C)cc1C)C(=O)N[C@@H](CC(C)C)[C@@H](O)C[C@@H](C)C(=O)N[C@@H](CC(C)C)C(=O)NC(C)C [MMI-203]
194	121	0.6	64			CSCC[C@H](NC(=O)[C@@H](NC(=O)OC(C)(C)C)C(C)C)C(=O)N[C@@H](CC(C)C)[C@@H](O)C[C@@H](C)C(=O)N[C@@H](CC(C)C)C(=O)N1CCN(C)CC1 [MMI-184]
110	68.9					CSCC[C@H](NC(=O)C(C)Cn1nc(C)cc1C)C(=O)N[C@@H](CC(C)C)[C@@H](O)C[C@@H](C)C(=O)N[C@@H](CC(C)C)C(=O)NCc1ccco1 (stereo partly shown) [MMI-226]
94.5	59.1					CSCC[C@H](NC(=O)[C@@H](NC(=O)OC(C)(C)C)[C@H](C)O)C(=O)N[C@@H](CC(C)C)[C@@H](O)C[C@@H](C)C(=O)N[C@@H](CC(C)C)C(=O)NC(C)C [MMI-197]
84.6	52.9					CSCC[C@H](NC(=O)CCn1nc(C)cc1C)C(=O)N[C@@H](CC(C)C)[C@@H](O)C[C@@H](C)C(=O)N[C@H](C(=O)NCc1ccco1)C(C)C [MMI-213]
71.1	44.5					CSCC[C@H](NC(=O)OCn1nc(C)cc1C)C(=O)N[C@@H](CC(C)C)[C@@H](O)C[C@@H](C)C(=O)N[C@H](C(=O)NCc1ccco1)C(C)C [MMI-212]
62.3	38.9					CSCC[C@H](NC(=O)CCn1nc(C)cc1C)C(=O)N[C@@H](CC(C)C)[C@@H](O)C[C@@H](C)C(=O)N[C@H](C(=O)NCC(C)C)C(C)C [MMI-194]
58	36.2					CSCC[C@H](C[C@H](O)[C@H](Cc1ccccc1)NC(=O)[C@H](CCSC)NC(=O)[C@@H](NC(=O)OC(C)(C)C)C(C)C)C(=O)N[C@H](C(=O)NCc1ccccc1)C(C)C [MMI-201]
